The test system of experiment [1] is Complex I. Briefly: Complex I (CI) activity microplate assay in treated fibroblasts. Format: cell-based. To be noted: 25 nM, within thirty minutes, compared to 10 μM unmodified creatine. On the procedure:
Complex I activity was determined using a CI microplate assay (MS 141) from MitoSciences (Eugene, Oreg.) according to the manufacturer's protocol. Fibroblasts were plated in T75 flasks. 24 hours after plating, the cells were treated with various concentrations of compound of example 1 in media for 30 min. The cells were then lysed, and the mitochondria were isolated using reagents provided in the CI assay kit according to the manufacturer's protocol. After determination of the protein concentrations, 20 μg of the purified mitochondria in a total volume of 200 μl was added in quadruplicate to the 96-well microplate and the CI enzyme was immunocaptured within the wells. CI activity was measured colorimetrically with a PHERAstar FS (BMG LABTECH Inc, Cary, N.C., USA) as a change in the absorbance following the oxidation of NADH to NAD+ and the simultaneous reduction of a dye which leads to increased absorbance at 450 nm over time (0-105 min). The average±SD of the quadruplicate values for each time point and treatment group were graphed, and the rate of CI activity was determined by the initial slope (i.e., values in the linear range from 20 to 50 min), expressed as change in optical density per minute.

The subject of experiment [2] is fibroblasts. Briefly: Oxygen consumption rate (OCR), XF24 extracellular flux analyzer, fibroblasts. Format: cell-based. To be noted: 5 nM to 500 nM, within thirty minutes of treatment, compared to 10 μM unmodified creatine. On the procedure:
In this assay, an XF24 extracellular flux analyzer (Seahorse Bioscience, North Billerica, Mass.) was used to measure mitochondrial oxygen consumption in intact cells. The XF24 analyzer creates a transient 7 μl chamber in specialized microplates that allows determination of oxygen and proton concentrations in real time through the measurement of oxygen sensitive dyes by the XF24 instrument. 24 hours prior to OCR measurement, fibroblasts were seeded into 20 wells of the 24 well tissue culture plate while 1 ml of XF Calibrant solution (Seahorse Bioscience, North Billerica, Mass.) was added to each well of a 24 well dual-analyte sensor cartridge (Seahorse Bioscience, North Billerica, Mass.). The sensor cartridge repositioned on the 24 well calibration plate, and the plate was incubated overnight at 37° C. without additional CO2. The day of the experiment, the injection ports on the sensor cartridge were loaded with compound 1 or creatine as indicated at 10× concentrations and placed into the XF24 Flux Analyzer for automated calibration. During the sensor calibration, cells in each of the tissue culture well were rinsed once in 1 mL of unbuffered media. 675 μL of unbuffered media was then added to each well, and the plate was incubated for an hour in the absence of additional CO2. Plates were subsequently placed into the calibrated seahorse XF24 flux analyzer for bioenergetic analysis. […]

Experiment [3] has as its system HepG2 human liver carcinoma cells. The experiment is described as follows: Oxygen consumption rate (OCR) in HepG2 cells. The class given is cell-based. The note with it: control is 100. Here is the method: In this assay, an XF24 extracellular flux analyzer (Seahorse Bioscience, North Billerica, Mass.) was used to measure mitochondrial oxygen consumption in intact cells. The XF24 analyzer creates a transient 7 μl chamber in specialized microplates that allows determination of oxygen and proton concentrations in real time through the measurement of oxygen sensitive dyes by the XF24 instrument. 24 hours prior to OCR measurement, fibroblasts were seeded into 20 wells of the 24 well tissue culture plate while 1 ml of XF Calibrant solution (Seahorse Bioscience, North Billerica, Mass.) was added to each well of a 24 well dual-analyte sensor cartridge (Seahorse Bioscience, North Billerica, Mass.). The sensor cartridge repositioned on the 24 well calibration plate, and the plate was incubated overnight at 37° C. without additional CO2.
The day of the experiment, the injection ports on the sensor cartridge were loaded with compound 1 or creatine as indicated at 10× concentrations and placed into the XF24 Flux Analyzer for automated calibration. During the sensor calibration, cells in each of the tissue culture well were rinsed once in 1 mL of unbuffered media. 675 μL of unbuffered media was then added to each well, and the plate was incubated for an hour in the absence of additional CO2. Plates were subsequently placed into the calibrated seahorse XF24 flux analyzer for bioenergetic analysis. An equivalent number of cells per well are plated using a cell counter. Further normalization is achieved by taking baseline measurements of OCR on a well-by-well basis, and the increase observed is a comparison to the same well prior to treatment. Thus each well serves as its own control.
Using the same procedure, the oxygen consumption rate (OCR) for additional compounds were measure in HepG2 human liver carcinoma cells. Compounds were added in concentrations ranging from 0.25 nM to 200 nM.

Experiment [4] relates to recombinant CPK (Native Human Creatine Kinase). The experiment is described as follows: Determination of CPK activity (ATP hydrolysis/consumption, luciferase). Format: biochemical. The note with it: 5 mM compound or creatine, 1 mM ATP, CPK 10 units/well, compound 1 compared with equimolar creatine. Here is the method: Disclosed herein is an in vitro assay for determining the activity of recombinant CPK on the modified creatine compounds. Recombinant CPK is mixed with ATP and a modified creatine compound of interest. ATP hydrolysis, a measure of the rate of transfer of the gamma phosphate from ATP to the guanidinium groups of the creatine subunit, was measured using luciferase. The rate of ATP hydrolysis/consumption for the modified creatine compound is then compared to the rate of ATP hydrolysis/consumption for creatine. An in vitro assay was performed to determine the activity of recombinant CPK on the modified creatine compounds (CK, Native Human Creatine Kinase from Cell Sciences Catalog No: CSI14786B). Recombinant CPK (10 units/well) is mixed with 1 mM ATP and the compound of example 1 (compound 1) at varying concentrations (5 mM, 2.5 mM, and 1 mM) or creatine (5 mM). ATP hydrolysis; a measure of the rate of transfer of the gamma phosphate from ATP to the guanidinium groups of the creatine subunit was then measured for each sample using luciferase. Luciferase is then added (GLO kit from Promega) according to manufacturer instructions. As ATP is consumed, light is emitted. Every 2 minutes we collected the emitted light in our plate reader in lumens. The data is collected over 30 minutes to generate a slope. The slope is a measure of ATP consumption. […]

“Also recorded” adds a separate entry of the source.

Consider `CN(CC(=O)NCCC[P+](c1ccccc1)(c1ccccc1)c1ccccc1)C(=N)N` [Example 1, N^2-[ammonio(imino)methyl]-N^2-methyl-N-[3-(triphenylphosphonio)propyl]glycinamide bis(trifluoroacetate)], for which the “Complex I activity (change in optical density per minute)” value in experiment [1] was “significant increase in Complex I activity”. Moreover, in experiment [2], the oxygen consumption rate entry is on record as “significant increase in oxygen consumption rate”. This compound also displayed an OCR in experiment [3] (10 nM) of 124%. Moreover, the “rate of ATP hydrolysis/consumption” value in experiment [4] (bis(trifluoroacetate)) is listed as “higher rate of ATP hydrolysis/consumption relative to creatine; also recorded: significantly higher rate of ATP hydrolysis/consumption than creatine”.

The compound `CN(CC(=O)N(C)CCC[P+](c1ccccc1)(c1ccccc1)c1ccccc1)C(=N)N` [Example 2, N^2-[ammonio(imino)methyl]-N,N^2-dimethyl-N-[3-(triphenylphosphonio)propyl]glycinamide bis(trifluoroacetate)] came in with an OCR in experiment [3] (10 nM) of 106%.

On to `CN(CCC(=O)NCCCC[P+](c1ccccc1)(c1ccccc1)c1ccccc1)C(=N)N.O=C(O)C(F)(F)F.O=C([O-])C(F)(F)F` [Example 5, N^3-[ammonio(imino)methyl]-N^3-methyl-N-[4-(triphenylphosphonio)butyl]-O-alaninamide bis(trifluoroacetate)], for which the OCR in experiment [3] (10 nM) came out at 117.9%.

On to `CN(CCCC(=O)NCCCC[P+](c1ccccc1)(c1ccccc1)c1ccccc1)C(=N)N.O=C(O)C(F)(F)F.O=C([O-])C(F)(F)F` [Example 6, {4-[(4-{[ammonio(imino)methyl](methyl)amino}butanoyl)amino]butyl}(triphenyl)phosphonium bis(trifluoroacetate)], for which the OCR in experiment [3] (0.25 nM) is recorded as 121%.

`CN(CCC(C)(C)C(=O)NCCCC[P+](c1ccccc1)(c1ccccc1)c1ccccc1)C(=N)N.O=C(O)C(F)(F)F.O=C([O-])C(F)(F)F` [Example 7, {4-[(4-{[ammonio(imino)methyl](methyl)amino}-2,2-dimethylbutanoyl)amino]butyl}(triphenyl)phosphonium bis(trifluoroacetate)] registered an OCR in experiment [3] (20 nM) of 112%.

For `CN(CC1(C(=O)NCCC[P+](c2ccccc2)(c2ccccc2)c2ccccc2)CC1)C(=N)N.O=C(O)C(F)(F)F.O=C([O-])C(F)(F)F` [Example 8, [3-({[1-({[ammonio(imino)methyl](methyl)amino}methyl)cyclopropyl]carbonyl}amino)propyl](triphenyl)phosphonium bis(trifluoroacetate)], the OCR in experiment [3] (2.5 nM) is given as 115.7%.

`CN(CC1(C(=O)NCCC[P+](c2ccccc2)(c2ccccc2)c2ccccc2)CCOCC1)C(=N)N.O=C(O)C(F)(F)F.O=C([O-])C(F)(F)F` [Example 9, [3-({[4-({[ammonio(imino)methyl](methyl)amino}methyl)tetrahydro-2H-pyran-4-yl]carbonyl}amino)propyl](triphenyl)phosphonium bis(trifluoroacetate)] yielded an OCR in experiment [3] (2.5 nM) of 121.9%.

In the case of `CN(CC(=O)O)C(=N)N` [creatine, 2-(carbamimidoyl-methyl-amino) acetic acid], the “rate of ATP hydrolysis/consumption” value in experiment [4] was “increase in ATP hydrolysis/consumption”.

These data come from patent US9434753B2, “Modified creatine compounds” (Gencia Corporation, priority 2011, dated 2016).
